Measurements published in PubChem BioAssay AID1845195 (Molecular Pharmacology Branch, DTP, NCI, 2023).
Blank lines part the entries; values can stand above or below the molecule they belong to.

System: 156681-154-R-J1 tumor spheroid viability
Assay: Anticancer human tumor 156681-154-R-J1 patient-derived melanoma cell line growth inhibition
Conditions: spheroids with HUVEC and MSC; for viability, T/C: stronger effect = lower value
Procedure, shortened: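 Single agents and combinations were tested on spheroids built from tumor cells plus HUVEC and hMSC, at half-log dilutions starting at or near clinical Cmax, else 10 microM; final DMSO 0.25% (v/v).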
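Note: spheroids exposed to compounds for 7 days before readout.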
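Throughout, for viability, T/C: percent of vehicle control viability where 100% = DMSO-treated spheroids.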

Structure (SMILES): CNCc1ccc(-c2cc(-c3nc(-c4ccc(S(=O)(=O)C(C)C)cc4)cnc3N)on2)cc1 + COc1cc2c(cc1O)CCNC21CSC2c3c(OC(C)=O)c(C)c4c(c3C(COC1=O)N1C(O)C3Cc5cc(C)c(OC)c(O)c5C(C21)N3C)OCO4
- IC50 (curve of first compound, second compound 30 pM): 1120 nM
- IC50 (curve of first compound, second compound 94.9 pM): 870 nM
- IC50 (curve of first compound, second compound 0.0003 µM): 581 nM
- IC50 (curve of first compound, second compound 0.000949 µM): < 9.49 nM
- IC50 (curve of first compound, second compound 0.003 µM): < 9.49 nM
- viability, T/C (second compound 30 pM, first compound 0.00949 µM): 119%
- viability, T/C (second compound 30 pM, first compound 0.03 µM): 103%
- viability, T/C (second compound 30 pM, first compound 0.0949 µM): 99%
- viability, T/C (second compound 30 pM, first compound 0.3 µM): 85.2%
- viability, T/C (second compound 30 pM, first compound 0.949 µM): 53.5%
- viability, T/C (second compound 30 pM, first compound 3 µM): 17%
- viability, T/C (second compound 94.9 pM, first compound 0.00949 µM): 112%
- viability, T/C (second compound 94.9 pM, first compound 0.03 µM): 113%
- viability, T/C (second compound 94.9 pM, first compound 0.0949 µM): 101%
- viability, T/C (second compound 94.9 pM, first compound 0.3 µM): 77.1%
- viability, T/C (second compound 94.9 pM, first compound 0.949 µM): 49.3%
- viability, T/C (second compound 94.9 pM, first compound 3 µM): 2.05%
- viability, T/C (second compound 0.0003 µM, first compound 0.00949 µM): 90.6%
- viability, T/C (second compound 0.0003 µM, first compound 0.03 µM): 100%
- viability, T/C (second compound 0.0003 µM, first compound 0.0949 µM): 90.4%
- viability, T/C (second compound 0.0003 µM, first compound 0.3 µM): 69.1%
- viability, T/C (second compound 0.0003 µM, first compound 0.949 µM): 35.4%
- viability, T/C (second compound 0.0003 µM, first compound 3 µM): 1.71%
- viability, T/C (second compound 0.000949 µM, first compound 0.00949 µM): 3.5%
- viability, T/C (second compound 0.000949 µM, first compound 0.03 µM): 5.91%
- viability, T/C (second compound 0.000949 µM, first compound 0.0949 µM): 4.37%
- viability, T/C (second compound 0.000949 µM, first compound 0.3 µM): 3.55%
- viability, T/C (second compound 0.000949 µM, first compound 0.949 µM): 1.04%
- viability, T/C (second compound 0.000949 µM, first compound 3 µM): 0.15%
- viability, T/C (second compound 0.003 µM, first compound 0.00949 µM): 0.16%
- viability, T/C (second compound 0.003 µM, first compound 0.03 µM): 0.17%
- viability, T/C (second compound 0.003 µM, first compound 0.0949 µM): 0.17%
- viability, T/C (second compound 0.003 µM, first compound 0.3 µM): 0.12%
- viability, T/C (second compound 0.003 µM, first compound 0.949 µM): 0.12%
- viability, T/C (second compound 0.003 µM, first compound 3 µM): 0.24%

- IC50 (compound alone, run of 10/17/2019): 39.5 nM [middle of 5 runs]
- IC50 (compound alone, run of 10/25/2019): 45.2 nM [middle of 5 runs]
Structure (SMILES): CC[C@@]1(O)C(=O)OCc2c1cc1n(c2=O)Cc2cc3c(CN(C)C)c(O)ccc3nc2-1
- viability, T/C (compound 0.00949 µM): 85.4% [middle of 10 runs]
- viability, T/C (compound 0.0949 µM): 22.1% [middle of 10 runs]
- viability, T/C (compound 0.3 µM): 31.3% [middle of 10 runs]
